# Measurements reported in ChEMBL document CHEMBL3525955, “Glucuronidation of the red clover isoflavone irilone by liver microsomes from different species and human UDP-glucuronosyltransferases” (Drug Metab Dispos, 2011).
# Key:
# [1] = biological target: T1, UDP-glucuronosyltransferase 1A1 (Homo sapiens, UniProt P22309); assay: Activity of human recombinant UGT1A1 assessed as intrinsic clearance incubated for 5 mins prior to UDPGA addition measured after 90 mins; format: ADME; conditions: recombinant enzyme, 1.5 h
# T1 sequence (P22309 whole entry): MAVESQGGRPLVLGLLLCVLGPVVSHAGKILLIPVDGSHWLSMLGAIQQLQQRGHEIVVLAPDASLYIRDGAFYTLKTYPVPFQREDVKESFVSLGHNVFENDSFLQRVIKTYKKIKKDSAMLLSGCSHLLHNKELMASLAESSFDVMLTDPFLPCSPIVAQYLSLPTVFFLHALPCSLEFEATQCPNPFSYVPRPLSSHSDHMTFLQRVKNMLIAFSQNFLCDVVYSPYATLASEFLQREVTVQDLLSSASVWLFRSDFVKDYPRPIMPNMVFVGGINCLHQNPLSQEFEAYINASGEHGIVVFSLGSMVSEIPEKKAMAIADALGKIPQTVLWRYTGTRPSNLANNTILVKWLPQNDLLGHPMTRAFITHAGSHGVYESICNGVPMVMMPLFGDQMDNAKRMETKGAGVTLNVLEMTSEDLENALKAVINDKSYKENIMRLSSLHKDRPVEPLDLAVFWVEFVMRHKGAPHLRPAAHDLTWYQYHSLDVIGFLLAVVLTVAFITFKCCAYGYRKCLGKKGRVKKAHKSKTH
# [2] = Intrinsic clearance in pig liver microsomes incubated for 5 mins prior to UDPGA addition measured after 90 mins; format: ADME, Sus scrofa; conditions: 1.5 h
# [3] = tested on: Liver microsome; assay: Intrinsic clearance in human liver microsomes incubated for 5 mins prior to UDPGA addition measured after 90 mins; format: ADME; conditions: 1.5 h
# [4] = tested on: Liver microsome; assay: Drug metabolism in human liver microsomes assessed as IRI-O-5-monoglucuronide formation incubated for 5 mins prior to UDPGA addition measured after 90 mins by Eadie-Hoftsee plot analysis; format: ADME; conditions: 1.5 h
# [5] = biological target: Liver microsome; assay: Drug metabolism in human liver microsomes assessed as substrate inhibition of IRI-O-5-monoglucuronide formation incubated for 5 mins prior to UDPGA addition measured after 90 mins by Eadie-Hoftsee plot analysis; format: ADME
# [6] = Drug metabolism in pig liver microsomes assessed as substrate inhibition of IRI-O-5-monoglucuronide formation incubated for 5 mins prior to UDPGA addition measured after 90 mins by Eadie-Hoftsee plot analysis; format: ADME, Sus scrofa
# [7] = biological target: T2, UDP-glucuronosyltransferase 1A10 (Homo sapiens, UniProt Q9HAW8); assay: Activity of human recombinant UGT1A10 assessed as intrinsic clearance incubated for 5 mins prior to UDPGA addition measured after 90 mins; format: ADME; conditions: recombinant enzyme, 1.5 h
# T2 sequence (Q9HAW8 whole entry): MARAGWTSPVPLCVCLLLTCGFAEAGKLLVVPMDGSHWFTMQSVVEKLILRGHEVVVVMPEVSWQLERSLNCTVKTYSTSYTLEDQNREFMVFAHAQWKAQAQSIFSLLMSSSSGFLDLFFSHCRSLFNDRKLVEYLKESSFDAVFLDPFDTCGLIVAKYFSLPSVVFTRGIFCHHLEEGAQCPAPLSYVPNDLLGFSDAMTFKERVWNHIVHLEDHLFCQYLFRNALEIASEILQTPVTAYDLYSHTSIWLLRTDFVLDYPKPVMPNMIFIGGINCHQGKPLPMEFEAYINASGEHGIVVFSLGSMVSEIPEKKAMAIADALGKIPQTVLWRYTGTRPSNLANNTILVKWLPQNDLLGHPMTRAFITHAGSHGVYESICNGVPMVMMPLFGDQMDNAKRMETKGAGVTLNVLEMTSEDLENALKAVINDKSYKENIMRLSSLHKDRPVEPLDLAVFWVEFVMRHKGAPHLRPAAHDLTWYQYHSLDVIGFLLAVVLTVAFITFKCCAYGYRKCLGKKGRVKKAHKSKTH
# [8] = biological target: T1, UDP-glucuronosyltransferase 1A1; assay: Drug metabolism assessed as human recombinant UGT1A1-mediated irilone-O-5-monoglucuronide formation at 25 uM incubated for 5 mins prior to UDPGA addition measured after 90 mins by HPLC-DAD analysis; format: ADME; conditions: recombinant enzyme, 1.5 h
# [9] = biological target: T3, UDP-glucuronosyltransferase 1A7 (Homo sapiens, UniProt Q9HAW7); assay: Drug metabolism assessed as human recombinant UGT1A7-mediated irilone-O-4'-monoglucuronide formation at 25 uM incubated for 5 mins prior to UDPGA addition measured after 90 mins by HPLC-DAD analysis; format: ADME; conditions: recombinant enzyme, 1.5 h
# T3 sequence (Q9HAW7 whole entry): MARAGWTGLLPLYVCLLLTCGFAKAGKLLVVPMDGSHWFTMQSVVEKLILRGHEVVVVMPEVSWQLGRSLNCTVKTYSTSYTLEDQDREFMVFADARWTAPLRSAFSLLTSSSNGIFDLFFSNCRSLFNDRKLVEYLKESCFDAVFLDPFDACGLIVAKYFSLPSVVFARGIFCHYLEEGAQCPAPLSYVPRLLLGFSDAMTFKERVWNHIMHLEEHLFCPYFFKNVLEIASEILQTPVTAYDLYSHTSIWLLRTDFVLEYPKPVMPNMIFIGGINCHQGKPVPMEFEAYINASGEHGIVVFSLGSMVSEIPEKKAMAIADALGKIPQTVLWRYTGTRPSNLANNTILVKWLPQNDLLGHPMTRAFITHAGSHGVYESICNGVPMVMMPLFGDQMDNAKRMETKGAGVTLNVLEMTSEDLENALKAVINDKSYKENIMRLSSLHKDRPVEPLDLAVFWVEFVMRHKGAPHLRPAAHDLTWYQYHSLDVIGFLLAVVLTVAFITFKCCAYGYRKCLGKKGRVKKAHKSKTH
# [10] = biological target: T4, UDP-glucuronosyltransferase 1A8 (Homo sapiens, UniProt Q9HAW9); assay: Substrate inhibition of human recombinant UGT1A8 assessed as IRI-O-4'-monoglucuronide formation incubated for 5 mins prior to UDPGA addition measured after 90 mins by Eadie-Hoftsee plot analysis; format: ADME
# T4 sequence (Q9HAW9 whole entry): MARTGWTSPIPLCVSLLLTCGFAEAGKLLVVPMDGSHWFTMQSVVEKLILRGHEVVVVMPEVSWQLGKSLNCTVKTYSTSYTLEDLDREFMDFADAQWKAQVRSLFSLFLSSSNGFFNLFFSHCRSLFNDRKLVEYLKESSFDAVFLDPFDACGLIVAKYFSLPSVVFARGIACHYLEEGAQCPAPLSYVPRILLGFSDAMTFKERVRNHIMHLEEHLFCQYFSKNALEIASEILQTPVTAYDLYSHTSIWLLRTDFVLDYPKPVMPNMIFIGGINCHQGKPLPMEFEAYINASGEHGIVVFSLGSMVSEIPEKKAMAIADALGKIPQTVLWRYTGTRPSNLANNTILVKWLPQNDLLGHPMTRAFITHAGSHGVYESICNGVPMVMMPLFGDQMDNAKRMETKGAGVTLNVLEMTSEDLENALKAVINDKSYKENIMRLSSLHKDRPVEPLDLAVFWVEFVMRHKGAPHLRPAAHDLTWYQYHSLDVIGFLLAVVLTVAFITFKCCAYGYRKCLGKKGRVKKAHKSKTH
# [11] = biological target: T2, UDP-glucuronosyltransferase 1A10; assay: Substrate inhibition of human recombinant UGT1A10 assessed as IRI-O-4'-monoglucuronide formation incubated for 5 mins prior to UDPGA addition measured after 90 mins by Eadie-Hoftsee plot analysis; format: ADME
# [12] = biological target: Liver microsome; assay: Drug metabolism in human liver microsomes assessed as substrate inhibition of IRI-O-4'-monoglucuronide formation incubated for 5 mins prior to UDPGA addition measured after 90 mins by Eadie-Hoftsee plot analysis; format: ADME
structure (smiles),measurement,setting,value
O=c1c(-c2ccc(O)cc2)coc2cc3c(c(O)c12)OCO3,CL,[1],27200 µL/min/mg
same,CLH,[2],71800 µL/min/mg
same,CLH,[3],48500 µL/min/mg
same,Km,[4],9.8 µM
same,Vmax,[4],0.43 nmol/mg/min
same,Ki,[5],96.9 µM
same,Ki,[6],183 µM
same,CL,[7],99900 µL/min/mg
same,Drug metabolism,[8],metabolite_detected
same,Drug metabolism,[9],metabolite_detected
same,Ki,[10],23.4 µM
same,Ki,[11],121 µM
same,Ki,[12],50.9 µM
